The text below walks through data of ChEMBL document CHEMBL1132873, “Synthesis and structural analysis of the active enantiomer of famoxadone, a potent inhibitor of cytochrome bc1” (Bioorg Med Chem Lett, 2000).

For the experiment, the species on record is Rattus norvegicus. The experiment is described as follows: Compound was tested for inhibition of mitochondrial electron transport. It counts as functional.

The IC50 is the concentration that inhibits the measured activity by half. A low value points to higher potency. `CN(c1ccccc1)N1C(=O)O[C@@](C)(c2ccc(Oc3ccccc3)cc2)C1=O` registered an IC50 of 0.035 µM. Regarding `C[C@@]1(c2ccc(Oc3ccccc3)cc2)OC(=O)N(Nc2ccccc2)C1=O` [FAMOXADONE], the half-inhibitory concentration (IC50) worked out at 0.011 µM.
